Laboratory results: patent publication US20230159527A1, “COMPOUNDS AS BCL-2 INHIBITORS” (Fochon Pharmaceuticals, Ltd., priority 2020, published 2023)

Experiments:
[1] = system: RS4;11 cells; experiment: Cell proliferation assay, RS4;11 cells (MTS, 72 h); assay type: cell-based; conditions: Homo sapiens, RS4;11 cell proliferation
Method: MTS testing kit was purchased from Promega. The RPMI-1640, Fetal bovine serum and Penicillin-Streptomycin were purchased from Gibco. Dimethyl sulfoxide (DMSO) was purchased from Sigma.
To investigate whether a compound is able to inhibit the activity of Bcl-2 in cells, a mechanism-based assay using RS4;11 (ATCC® CRL-1873™) cell was developed. In this assay, inhibition of Bcl-2 was detected by the inhibition of RS4;11 cells proliferation. RS4;11 cells were cultured in culture flasks to 40-80% confluence in RPMI-1640 plus 10% fetal bovine serum. Cells were collected and plated onto 96-well plates at desired cell density (30000 cells/well). Plates were incubated overnight at 37° C., with 5% CO2 to adhere. Compounds were added to the plates, and the final compound concentrations were 10000, 3333, 1111, […], 41, 14, 4.6 and 1.5 nM. Plates plated with RS4;11 cells were placed at 37° C., with 5% CO2 for 72 h. 20 μl MTS/100 μl medium mixture solution were added to each well and incubate the plates for exactly 2 hours. The reaction was stopped by adding 25 μl 10% SDS per well. Measure absorbance at 490 nm and 650 nm (reference wavelength). IC50 was calculated using GraphPad Prism 5.0.

[2] = system: DoHH2 cells; experiment: Cell proliferation assay, DoHH2 cells (MTS, 120 h); assay type: cell-based; conditions: Homo sapiens, DOHH-2
Outline: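 DoHH2 cells in RPMI-1640 with 10% FBS were plated at 5000/well and rested 4 h. They were then exposed to compound at nine final concentrations (10000 to 1.5 nM) for 120 h at 37 °C. Viability was read by MTS (2 h, A490) and IC50 derived by curve fitting.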

IC50 [1]	SMILES	IC50 [2]
≤ 1 nM	O=C(NS(=O)(=O)c1cc([N+](=O)[O-])c2c(n1)OC[C@H](C1CC1)N2)c1ccc(N2CCC3(CC2)CC(N2CCCC2c2ccccc2C2CC2)C3)cc1Oc1cnc2[nH]ccc2c1 (single isomer, unassigned) [Example B-52, 2-((1H-pyrrolo[2,3-b]pyridin-5-yl)oxy)-N-(((S)-2-cyclopropyl-8-nitro-2,3-dihydro-1H-pyrido[2,3-b] [1,4]oxazin-6-yl)sulfonyl)-4-(2-((R or S)-2-(2-cyclopropylphenyl)pyrrolidin-1-yl)-7-azaspiro[3.5]nonan-7-yl)benzamide]	≤ 1 nM
≤ 1 nM	CC(C)c1ccccc1C1CCCN1C1CC2(CCN(c3ccc(C(=O)NS(=O)(=O)c4cc([N+](=O)[O-])c5c(n4)OC[C@H](C4CCOCC4)N5)c(Oc4cnc5[nH]ccc5c4)c3)CC2)C1 (single isomer, unassigned) [Example B-33, 2-((1H-pyrrolo[2,3-b]pyridin-5-yl)oxy)-4-(2-((R or S)-2-(2-isopropylphenyl)pyrrolidin-1-yl)-7-azaspiro[3.5]nonan-7-yl)-N-(((S)-8-nitro-2-(tetrahydro-2H-pyran-4-yl)-2,3-dihydro-1H-pyrido[2,3-b][1,4]oxazin-6-yl)sulfonyl)benzamide]	≤ 1 nM
≤ 1 nM	CC(C)c1ccccc1[C@@H]1CCCN1C1CC2(CCN(c3ccc(C(=O)NS(=O)(=O)c4cc([N+](=O)[O-])c5c(n4)OC[C@H](Cc4ccccn4)N5)c(Oc4cnc5[nH]ccc5c4)c3)CC2)C1 (single isomer, unassigned) [Example B-38, 2-((1H-pyrrolo[2,3-b]pyridin-5-yl)oxy)-4-(2-((R or S)-2-(2-isopropylphenyl)pyrrolidin-1-yl)-7-azaspiro[3.5]nonan-7-yl)-N-(((S)-8-nitro-2-(pyridin-2-ylmethyl)-2,3-dihydro-1H-pyrido [2,3-b][1,4]oxazin-6-yl)sulfonyl) benzamide]	≤ 1 nM
≤ 1 nM	O=C(NS(=O)(=O)c1cc([N+](=O)[O-])c2c(n1)OC[C@H](Cc1ccccn1)N2)c1ccc(N2CCC3(CC2)CC(N2CCC[C@H]2c2ccccc2C2CC2)C3)cc1Oc1cnc2[nH]ccc2c1 (single isomer, unassigned) [Example B-45, 2-((1H-pyrrolo[2,3-b]pyridin-5-yl)oxy)-4-(2-((R or S)-2-(2-cyclopropylphenyl)pyrrolidin-1-yl)-7-azaspiro[3.5]nonan-7-yl)-N-(((S)-8-nitro-2-(pyridin-2-ylmethyl)-2,3-dihydro-1H-pyrido [2,3-b][1,4]oxazin-6-yl)sulfonyl) benzamide]	≤ 1 nM
≤ 1 nM	CC(C)c1ccccc1[C@H]1CCCN1C1CC2(CCN(c3ccc(C(=O)NS(=O)(=O)c4cc([N+](=O)[O-])c5c(n4)OC[C@H](Cc4ccccc4)N5)c(Oc4cnc5[nH]ccc5c4)c3)CC2)C1 [Example B-3b, 2-((1H-pyrrolo[2,3-b]pyridin-5-yl)oxy)-N-(((S)-2-benzyl-8-nitro-2,3-dihydro-1H-pyrido[2,3-b][1,4]oxazin-6-yl)sulfonyl)-4-(2-((R)-2-(2-isopropylphenyl)pyrrolidin-1-yl)-7-azaspiro[3.5]nonan-7-yl) benzamide]	≤ 1 nM

More lines, now with the values behind:

SMILES	IC50 [1]	IC50 [2]
O=C(NS(=O)(=O)c1cnc(NCC2(F)CCOCC2)c([N+](=O)[O-])c1)c1ccc(N2CCC3(CC2)CC(N2CCC[C@H]2c2ccccc2C2CC2)C3)cc1Oc1cnc2[nH]ccc2c1 [Example A-32a, (S)-2-((1H-pyrrolo[2,3-b]pyridin-5-yl)oxy)-4-(2-(2-(2-cyclopropyl-phenyl)pyrrolidin-1-yl)-7-azaspiro [3.5]nonan-7-yl)-N-((6-(((4-fluoro-tetrahydro-2H-pyran-4-yl)methyl)amino)-5-nitropyridin-3-yl)sulfonyl)benzamide]	≤ 1 nM	≤ 1 nM
O=C(NS(=O)(=O)c1cnc(NCC2CCOCC2)c([N+](=O)[O-])c1)c1ccc(N2CCC3(CC2)CC(N2CCOC[C@H]2c2ccccc2C2CC2)C3)cc1Oc1cnc2[nH]ccc2c1 (single isomer, unassigned) [Example A-75, (R or S)-2-((1H-pyrrolo[2,3-b]pyridin-5-yl)oxy)-4-(2-(3-(2-cyclopropyl-phenyl)morpholino)-7-azaspiro[3.5]nonan-7-yl)-N-((5-nitro-6-(((tetra-hydro-2H-pyran-4-yl)methyl)amino)pyridin-3-yl)sulfonyl) benzamide]	≤ 1 nM	≤ 1 nM
O=C(NS(=O)(=O)c1cnc(NCC2C3COCC23)c([N+](=O)[O-])c1)c1ccc(N2CCC3(CC2)CC(N2CCC4C[C@@]42c2ccccc2C2CC2)C3)cc1Oc1cnc2[nH]ccc2c1 (single isomer, unassigned) [Example A-97a, 2-((1H-pyrrolo[2,3-b]pyridin-5-yl)oxy)-N-((6-(((3-oxabicyclo[3.1.0]hexan-6-yl)methyl)amino)-5-nitro-pyridin-3-yl)sulfonyl)-4-(2-((1R or 1S)-1-(2-cyclopropylphenyl)-2-aza-bicyclo[3.1.0]hexan-2-yl)-7-azaspiro [3.5]nonan-7-yl)benzamide]	≤ 1 nM	≤ 1 nM
O=C(NS(=O)(=O)c1cnc(NCC2(F)CCOCC2)c([N+](=O)[O-])c1)c1ccc(N2CCC3(CC2)CC(N2CCC[C@@H]2c2ccccc2C2CC2)C3)cc1Oc1cnc2[nH]ccc2c1 [Example A-32b, (R)-2-((1H-pyrrolo[2,3-b]pyridin-5-yl)oxy)-4-(2-(2-(2-cyclopropyl-phenyl)pyrrolidin-1-yl)-7-azaspiro [3.5]nonan-7-yl)-N-((6-(((4-fluoro-tetrahydro-2H-pyran-4-yl)methyl)amino)-5-nitropyridin-3-yl)sulfonyl)benzamide]	≤ 1 nM	≤ 1 nM
CCS(=O)(CC)=NC1CCC(CNc2ncc(S(=O)(=O)NC(=O)c3ccc(N4CCC5(CC4)CC(N4CCC[C@@H]4c4ccccc4C(C)C)C5)cc3Oc3cnc4[nH]ccc4c3)cc2[N+](=O)[O-])CC1 (single isomer, unassigned) [Example A-13b, (R or S)-2-((1H-pyrrolo[2,3-b]pyridin-5-yl)oxy)-N-((6-(((4-((diethyl(oxo)-λ^6-sulfanylidene)amino)cyclohexyl)methyl)amino)-5-nitropyridin-3-yl)sulfonyl)-4-(2-(2-(2-isopropyl-phenyl)pyrrolidin-1-yl)-7-azaspiro [3.5]nonan-7-yl)benzamide]	≤ 1 nM	≤ 1 nM
CCc1ccccc1[C@H]1CCCN1C1CC2(CCN(c3ccc(C(=O)NS(=O)(=O)c4cnc(NCC5CCC(N=S6(=O)CCOCC6)CC5)c([N+](=O)[O-])c4)c(Oc4cnc5[nH]ccc5c4)c3)CC2)C1 (stereo partly drawn) [Example A-21b, (R)-2-((1H-pyrrolo[2,3-b]pyridin-5-yl)oxy)-4-(2-(2-(2-ethylphenyl)pyrrolidin-1-yl)-7-azaspiro[3.5]nonan-7-yl)-N-((5-nitro-6-(((4-((4-oxido-1,4λ^6-oxathian-4-ylidene)amino)cyclohexyl)methyl)amino)pyridin-3-yl)sulfonyl)benzamide]	≤ 1 nM	≤ 1 nM
CC(C)c1ccccc1[C@@H]1CCCN1C1CC2(CCN(c3ccc(C(=O)NS(=O)(=O)c4cnc(NCC5C6COCC56)c([N+](=O)[O-])c4)c(Oc4cnc5[nH]ccc5c4)c3)CC2)C1 (stereo in doubt) [Example A-27a, 2-((1H-pyrrolo[2,3-b]pyridin-5-yl)oxy)-N-((6-(((3-oxabicyclo[3.1.0]hexan-6-yl)methyl)amino)-5-nitro-pyridin-3-yl)sulfonyl)-4-(2-((5)-2-(2-isopropylphenyl)pyrrolidin-1-yl)-7-azaspiro[3.5]nonan-7-yl) benzamide]	≤ 1 nM	
O=C(NS(=O)(=O)c1cnc(NCC2CCOCC2)c([N+](=O)[O-])c1)c1ccc(N2CCC3(CC2)CC(N2CCNC[C@H]2c2ccccc2C2CC2)C3)cc1Oc1cnc2[nH]ccc2c1 (single isomer, unassigned) [Example A-36a, (R or S)-2-((1H-pyrrolo[2,3-b]pyridin-5-yl)oxy)-4-(2-(2-(2-cyclopropyl-phenyl)piperazin-1-yl)-7-azaspiro [3.5]nonan-7-yl)-N-((5-nitro-6-(((tetrahydro-2H-pyran-4-yl)methyl)amino)pyridin-3-yl)sulfonyl) benzamide]	≤ 1 nM	
CC1(O)CCC(CNc2ncc(S(=O)(=O)NC(=O)c3ccc(N4CCC5(CC4)CC(N4CCC[C@H]4c4ccccc4C4CC4)C5)cc3Oc3cnc4[nH]ccc4c3)cc2[N+](=O)[O-])CC1 (stereo partly drawn) [Example A-1a, (S)-2-((1H-pyrrolo[2,3-b]pyridin-5-yl)oxy)-4-(2-(2-(2-cyclopropylphenyl)pyrrolidin-1-yl)-7-azaspiro[3.5]nonan-7-yl)-N-((6-(((4-hydroxy-4-methylcyclohexyl)methyl)amino)-5-nitropyridin-3-yl)sulfonyl)benzamide]	≤ 1 nM	
